In one series the test system is IL-6. The series can be described thus: IL-6 release from keratinocytes by ELISA. The class given is cell-based, human. The method, then:
UV-B radiation was delivered with a battery of lamps (TL 20W/12RS UV-B Philips Medical) before and after treatment with diacerein.
In other experiments, UVB irradiation was delivered only after diacerein addition.
Before irradiation, the cells were washed once with PBS and irradiated in presence of PBS.
Controls were sham irradiated for identical periods as measured by International Light Research Radiometer (Newburyport, Mass.).
Quantitation of cytokine levels was performed by a quantitative two-site enzyme immunoassay according to manufacturer's instructions, using ELISA kits for IL-1, IL-6, IL-8 and TNF-α.
The sample concentration was determined by absorbance at 450 nm with the correction wavelength set at 540 nm.
No constitutive levels of IL-6 are normally detected in human keratinocytes.
Therefore, IL-6 release was stimulated by UVB irradiation.

Another series deals with human keratinocytes. Description: Viability of keratinocytes by trypan blue exclusion. As to conditions: increasing doses, 24 and 96 hours, except 100 and 200 μM at 96 hours. Format: cell-based. The method, then:
Human epidermal keratinocytes were obtained from foreskin by dispase II (5 mg/ml for 60 minutes at 37° C., Boehringer Mannheim, Germany) separation of epidermal sheets.
The epidermis was incubated in 0.25% trypsin/0.02% EDTA for 20 minutes a 37° C. and mechanically disaggregated.
The epidermal cell suspensions were plated (2.5×10^4/cm^2) on mytomicin C-treated 3T3-J2 cells (2.4×10^4/cm^2), ATCC, Rockville, Md., USA) and cultured in 5% CO2 humidified atmosphere in the keratinocyte growth medium: Dulbecco's modified Eagle's medium and Ham's F12 media (3:1 mixture, Biochrom KG, Berlin, Germany) containing fetal calf serum (10%, ICN Biomedicals, Aurora, Ohio), insulin ([…], Sigma, St.Louis, Mo., USA), transferrin ([…], Sigma), adenine (0.18 mM, Sigma), hydrocortisone ([…], Sigma), triiodothyronine (20 pM, Sigma), cholera toxin (0.1 nM, Sigma), epidermal growth factor (10 ng/ml, Sigma), 4 mM glutamine (Sigma), and penicillin/streptomycin (50 IU/ml, Biochrom.). […]
Cell viability was evaluated by trypan blue exclusion.
In order to understand the effects of diacerein on human keratinocytes, a possible alteration of vital parameters was evaluated by the trypan blue exclusion.

Another series has as its system IL-6, TNF-α and LIF. Particulars: prior knowledge; cited from earlier work.
Another series relates to prostaglandin PGE2. As to conditions: cited from earlier work.
The subject of series [1] is cytokines of the IL-1 family, especially IL-1β. Particulars: prior knowledge; cited from earlier work.

Each structure is given as a SMILES string.

Here are results for 1 compound from patent publication US6844365B2, “Substances for use in treating psoriasis” (Laboratoire Medidom S.A., priority 2000, dated 2005).

Regarding `CC(=O)Oc1cccc2c1C(=O)c1c(OC(C)=O)cc(C(=O)O)cc1C2=O` [diacerein, 4,5-bis(acetyloxy)-9,10-dihydro-9,10-dioxo-2-anthracene carboxylic acid], in the series with IL-6 (24 hours after irradiation), the “effect on UVB-induced IL-6 release” value is reported as “caused a reduction”. Moreover, in the series on IL-6 (UVB-irradiated keratinocytes), the “effect of timing of addition on IL-6 release” value is “significantly more effective when added both before and after UVB light”. Further, the “dose giving significant reduction in IL-6 release” value with IL-6 (added both before and after UVB) was 1 µM. Moreover, the “dose necessary for down regulation of IL-6” value in the series with IL-6 (administered only before UVB) turned out to be 5 µM. Besides, the “effect on IL-6 levels” value in the series on IL-6 (basic conditions, no UVB) is “did not affect”. Also, the “alteration of keratinocyte viability” value with human keratinocytes was “did not cause any significant alteration”. For the same compound, the “effect on IL-6 and other cytokines such as TNF-α and LIF” value in the series on IL-6, TNF-α and LIF was “inhibit IL-6 and other cytokines such as TNF-α and LIF”. Further, the gastrotoxic potential entry with prostaglandin PGE2 (inferred from no effect on PGE2 production) is “does not have gastrotoxic potential”. The “effect on prostaglandin PGE2 production” value in the series with prostaglandin PGE2 (prior knowledge) was “not to effect prostaglandin PGE2 production”. Besides, in series [1], the “effect on synthesis and activity of pro-inflammatory catabolic cytokines of the IL-1 family, especially IL-1β” value was “inhibit the synthesis and activity”.
